# Results as given in US20250332173A1, “COMPOUNDS AND METHODS FOR MODULATING NUCLEIC ACID SPLICING” (REMIX THERAPEUTICS INC., priority 2021, published 2025).
# Where two headings read alike, the source gives them in different places.
# How the values were obtained:
# Assay type in all cases: cell-based, human
# Target C = assay: HiBiT protein abundance assay, Target C (Promega Nano-Glo HiBiT Lytic Detection System, knock-in K562 cell line); conditions: Homo sapiens, K562, 24 h, HiBiT K562 cell line, 24 hours, top dose 10 μM; read-out: Effect on protein abundance, Target C (IC50 category)
# In short: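 HiBiT knock-in K562 cells (10,000/well) were treated for 24 h at 37 °C with a 10-point 3-fold dilution series, top final concentration 10 μM, DMSO ≤0.25%. Lytic HiBiT luminescence was read, normalized to unmodified K562 and DMSO-treated controls, and IC50 was interpolated from a four-parameter logistic fit.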
# HTT = assay: HiBiT protein abundance assay, HTT HiBiT K562 cell line; conditions: 24 hours, top dose 10 μM
# In short: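 Endogenous targets in K562 knock-in lines carried a HiBiT tag and were treated for 24 h at 37 °C with 10-point 3-fold dilutions (top 10 μM final, DMSO ≤0.25%). Abundance was read as lytic Nano-Glo HiBiT luminescence. IC50 came from a four-parameter logistic fit of normalized response.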
# MYB mRNA = assay: RT-qPCR splicing assay, MYB canonical junction (CJ) and alternative junction (AJ) mRNA; conditions: Homo sapiens; for AC50: increase in MYB alternative junction (AJ) mRNA, read-out: MYB AJ AC50
# In short: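 Following a 24-hour incubation of A673 or K562 cells with serially diluted compound (3-fold steps, highest final 10 uM), the lysates undergo cDNA synthesis plus qPCR. Canonical and alternative junctions are each quantified against PPIA, GAPDH or GUSB.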
# [1] = HiBiT K562 cell line, read-out: Effect on protein abundance, HTT (IC50 category)
# [2] = Table 5 panel, canonical junction qPCR, compound concentration having 50% response in CJ decrease, read-out: MYB IC50 (decrease in CJ mRNA levels)
# [3] = decrease in MYB canonical junction (CJ) mRNA, RT-qPCR, read-out: MYB CJ IC50
# [4] = HiBiT lytic detection, modified K562 cells, read-out: Effect on protein abundance, HTT (IC50)
SMILES,IC50 (Target C) [µM],IC50 (HTT; [1]) [µM],IC50 (MYB mRNA; [2]) [µM],IC50 (MYB mRNA; [3]) [µM],AC50 (MYB mRNA; RT-qPCR) [µM],IC50 (HTT; [4]) [µM]
"Cc1cn2nc(-c3ccc4c(=O)n(C5CCNCC5)ccc4c3)cc(CC(=O)O)c2n1 [Compound 531, 2-[2-methyl-6-[1-oxo-2-(4-piperidyl)-6-isoquinolyl]imidazo[1,2-b]pyridazin-8-yl]acetic acid]",0.1 to 1,< 0.1,0.1 to 1,0.1 to 1,0.1 to 1,
"Cn1cc2c(=O)n(-c3ccc4c(=O)n(C5CCNCC5)ccc4c3)ccc2n1 [Compound 530, 6-{2-methyl-4-oxopyrazolo[4,3-c]pyridin-5-yl}-2-(piperidin-4-yl)isoquinolin-1-one]",> 10,> 10,> 10,> 10,> 10,
"CNc1cc(-c2cc(C)c3nc(C)cn3n2)cc2ccn([C@H]3CCNC3)c(=O)c12 [Compound 647, 6-(2,8-dimethylimidazo[1,2-b]pyridazin-6-yl)-8-(methylamino)-2-[(3S)-pyrrolidin-3-yl]isoquinolin-1-one]",> 10,1 to 10,1 to 10,1 to 10,1 to 10,
"Cc1cn2cc(-c3cc(F)c4c(=O)n([C@@H]5C[C@@H](C)N[C@@H](C)C5)ccc4c3)cc(F)c2n1 [Compound 642, 2-[(2S,6R)-2,6-dimethyl-4-piperidyl]-8-fluoro-6-(8-fluoro-2-methyl-imidazo[1,2-a]pyridin-6-yl)isoquinolin-1-one]",1 to 10,0.1 to 1,0.1 to 1,0.1 to 1,0.1 to 1,
"Cc1cn2nc(-c3ccc4c(=O)n(C5CCNCC5)ccc4c3)cc(Cc3nnn[nH]3)c2n1 [Compound 536, 6-[2-methyl-8-(1H-tetrazol-5-ylmethyl)imidazo[1,2-b]pyridazin-6-yl]-2-(4-piperidyl) isoquinolin-1-one]",> 10,> 10,> 10,> 10,> 10,
"Cc1cn2cc(-c3cc4ncn(C5CCNCC5)c(=O)c4cc3F)cc(F)c2n1 [Compound 586, 6-fluoro-7-{8-fluoro-2-methylimidazo[1,2-a]pyridin-6-yl}-3-(piperidin-4-yl)quinazolin-4-one]",1 to 10,0.1 to 1,0.1 to 1,0.1 to 1,0.1 to 1,
"Cc1cn2nc(-c3ccc4c(=O)n(C5CCNCC5)ccc4c3)cc(CC#N)c2n1 [Compound 520, 2-[2-methyl-6-[1-oxo-2-(4-piperidyl)-6-isoquinolyl]imidazo[1,2-b]pyridazin-8-yl]acetonitrile]",1 to 10,0.1 to 1,0.1 to 1,0.1 to 1,0.1 to 1,
"Cc1cn2nc(-c3ccc4c(=O)n(C5CCNCC5)ccc4c3)cc(C(=O)N(C)C)c2n1 [Compound 524, N, N, 2-trimethyl-6-[1-oxo-2-(4-piperidyl)-6-isoquinolyl]imidazo[1,2-b]pyridazine-8-carboxamide]",> 10,> 10,> 10,> 10,> 10,
Cc1cn2nc(-c3ccn4c(=O)c(C5=CCNCC5)ncc4c3)cc(C)c2n1 [Compound 1182],,,0.1 to 1,0.1 to 1,0.1 to 1,0.1 to 1
"CNC(=O)c1cc(-c2ccc3c(=O)n(C4CCNCC4)ccc3c2)nn2cc(C)nc12 [Compound 518, N, 2-dimethyl-6-[1-oxo-2-(4-piperidyl)-6-isoquinolyl]imidazo[1,2-b]pyridazine-8-carboxamide]",1 to 10,1 to 10,1 to 10,> 10,1 to 10,
"C=Cc1cn(C2CCNCC2)c(=O)c2c(F)cc(-c3cc(F)c4nc(C)cn4c3)cc12 [Compound 559, 4-ethenyl-8-fluoro-6-{8-fluoro-2-methylimidazo[1,2-a]pyridin-6-yl}-2-(piperidin-4-yl)isoquinolin-1-one]",0.1 to 1,< 0.1,< 0.1,< 0.1,< 0.1,
CNC1CCN(c2ccc3cc(-c4cc(C)c5nc(C)cn5n4)ccn3c2=O)C1 (stereo not drawn) [Compound 1158],,,0.1 to 1,0.1 to 1,0.1 to 1,0.1 to 1
"Cc1cn2nc(-c3ccc4c(=O)n(C5CCNCC5)ccc4c3)cc(-n3ccccc3=O)c2n1 [Compound 552, 6-[2-methyl-8-(2-oxo-1-pyridyl)imidazo[1,2-b]pyridazin-6-yl]-2-(4-piperidyl)isoquinolin-1-one]",> 10,> 10,> 10,> 10,> 10,
"Cc1cn2nc(-c3ccc4c(=O)n(C5CCNCC5)ccc4c3)cc(-n3ccc(=O)cc3)c2n1 [Compound 551, 6-[2-methyl-8-(4-oxo-1-pyridyl)imidazo[1,2-b]pyridazin-6-yl]-2-(4-piperidyl)isoquinolin-1-one]",0.1 to 1,0.1 to 1,0.1 to 1,0.1 to 1,0.1 to 1,
"COC(=O)c1cc(-c2ccc3c(=O)n(C4CCNCC4)ccc3c2)nn2cc(C)nc12 [Compound 517, methyl 2-methyl-6-[1-oxo-2-(4-piperidyl)-6-isoquinolyl]imidazo[1,2-b]pyridazine-8-carboxylate]",1 to 10,1 to 10,0.1 to 1,0.1 to 1,0.1 to 1,
"CC(=O)Nc1cc(-c2cc(C)c3nc(C)cn3n2)cc2ccn([C@H]3CCNC3)c(=O)c12 [Compound 649, N-[6-(2,8-dimethylimidazo[1,2-b]pyridazin-6-yl)-1-oxo-2-[(3S)-pyrrolidin-3-yl]-8-isoquinolyl]acetamide]",1 to 10,1 to 10,1 to 10,1 to 10,1 to 10,
CCN1CCC(n2ncc3cc(-c4cc(C)c5nc(C)cn5n4)cc(F)c3c2=O)CC1 [Compound 537],0.1 to 1,< 0.1,0.1 to 1,0.1 to 1,0.1 to 1,
Cc1cn2nc(-c3cc(F)c4c(=O)n(C5CCN(CCF)CC5)ncc4c3)cc(C)c2n1 [Compound 538],0.1 to 1,< 0.1,0.1 to 1,0.1 to 1,0.1 to 1,
CN1CCC(c2ccc3c(=O)n(-c4ccc5nn(C)cc5c4)cnc3c2)CC1 [Compound 177],> 10,> 10,> 10,> 10,> 10,
"Cc1cn2nc(-c3ccc4c(=O)n(C5CCNCC5)ccc4c3)cc(C(=O)O)c2n1 [Compound 516, 2-methyl-6-[1-oxo-2-(4-piperidyl)-6-isoquinolyl]imidazo[1,2-b]pyridazine-8-carboxylic acid]",1 to 10,1 to 10,1 to 10,1 to 10,1 to 10,
Cc1nc2c(C)cc(-c3ccc4c(=O)n(C5CCNC6(CC6)C5)ncc4c3)cc2o1 (stereo not drawn) [Compound 513],1 to 10,0.1 to 1,1 to 10,1 to 10,1 to 10,
"Cc1cn2nc(-c3cc(N)c4c(=O)n([C@@H]5CCNC5)ccc4c3)cc(C)c2n1 [Compound 646, 8-amino-6-(2,8-dimethylimidazo[1,2-b]pyridazin-6-yl)-2-[(3R)-pyrrolidin-3-yl]isoquinolin-1-one]",> 10,> 10,> 10,1 to 10,> 10,
Cc1cn2nc(-c3cc(O)c4c(=O)n(C5CCN(C)CC5)ncc4c3)cc(C)c2n1 [Compound 543],0.1 to 1,< 0.1,0.1 to 1,0.1 to 1,0.1 to 1,
"Cc1cn2nc(-c3ccc4c(=O)n(C5CCNCC5)ccc4c3)cc(CCO)c2n1 [Compound 533, 6-[8-(2-hydroxyethyl)-2-methyl-imidazo[1,2-b]pyridazin-6-yl]-2-(4-piperidyl)isoquinolin-1-one]",0.1 to 1,0.1 to 1,0.1 to 1,0.1 to 1,0.1 to 1,
Cc1cn2cc(-c3cc(F)c4c(=O)n([C@H]5CNC[C@@H]5F)ccc4c3)cc(F)c2n1 [Compound 644],> 10,> 10,0.1 to 1,1 to 10,0.1 to 1,
Cn1cc2cc(-c3ncc4c(=O)n(C5CCNCC5)ccc4n3)c(O)c(F)c2n1 [Compound 1123],< 0.1,< 0.1,< 0.1,< 0.1,< 0.1,
Cc1cn2nc(-c3ccn4c(=O)c(C5CCNCC5)ccc4c3)cc(C)c2n1 [Compound 1181],,,< 0.1,< 0.1,< 0.1,< 0.1
